From ChEMBL document CHEMBL5291721, “A preclinical secondary pharmacology resource illuminates target-adverse drug reaction associations of marketed drugs” (Nat Commun, 2023)

How the values were obtained:
[1] = molecular target: T1, Muscarinic acetylcholine receptor M2 (Homo sapiens, UniProt P08172); format: functional, cell-based
T1 sequence (P08172 whole entry): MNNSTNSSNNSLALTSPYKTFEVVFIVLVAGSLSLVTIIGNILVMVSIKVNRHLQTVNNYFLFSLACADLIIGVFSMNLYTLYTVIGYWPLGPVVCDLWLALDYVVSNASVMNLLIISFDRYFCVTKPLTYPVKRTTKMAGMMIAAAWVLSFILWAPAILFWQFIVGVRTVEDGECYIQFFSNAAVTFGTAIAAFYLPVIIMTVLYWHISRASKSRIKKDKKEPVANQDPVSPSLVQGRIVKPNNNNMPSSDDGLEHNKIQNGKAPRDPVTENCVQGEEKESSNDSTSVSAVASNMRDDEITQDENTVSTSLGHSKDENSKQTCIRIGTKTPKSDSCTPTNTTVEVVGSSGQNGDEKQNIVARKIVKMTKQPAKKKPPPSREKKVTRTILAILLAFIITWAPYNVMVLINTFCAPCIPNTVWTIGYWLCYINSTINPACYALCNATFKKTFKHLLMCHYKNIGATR

[2] = molecular target: T2, Gastrin/cholecystokinin type B receptor (Homo sapiens, UniProt P32239)
T2 sequence (P32239 whole entry): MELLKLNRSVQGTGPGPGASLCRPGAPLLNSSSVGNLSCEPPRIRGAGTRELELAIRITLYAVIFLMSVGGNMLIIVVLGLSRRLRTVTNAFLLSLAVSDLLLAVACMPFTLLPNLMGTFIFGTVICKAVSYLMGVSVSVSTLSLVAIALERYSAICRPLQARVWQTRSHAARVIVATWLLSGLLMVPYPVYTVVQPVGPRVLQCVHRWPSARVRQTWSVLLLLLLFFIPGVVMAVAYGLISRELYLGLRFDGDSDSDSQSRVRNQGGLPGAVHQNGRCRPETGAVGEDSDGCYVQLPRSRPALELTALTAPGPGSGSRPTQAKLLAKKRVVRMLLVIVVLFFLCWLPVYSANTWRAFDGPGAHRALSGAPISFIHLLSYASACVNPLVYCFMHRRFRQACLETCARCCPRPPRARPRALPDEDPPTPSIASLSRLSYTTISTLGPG

[3] = molecular target: 5-hydroxytryptamine receptor 2B (Homo sapiens, UniProt P41595); format: functional, cell-based
Chain of 5-hydroxytryptamine receptor 2B (P41595 whole entry): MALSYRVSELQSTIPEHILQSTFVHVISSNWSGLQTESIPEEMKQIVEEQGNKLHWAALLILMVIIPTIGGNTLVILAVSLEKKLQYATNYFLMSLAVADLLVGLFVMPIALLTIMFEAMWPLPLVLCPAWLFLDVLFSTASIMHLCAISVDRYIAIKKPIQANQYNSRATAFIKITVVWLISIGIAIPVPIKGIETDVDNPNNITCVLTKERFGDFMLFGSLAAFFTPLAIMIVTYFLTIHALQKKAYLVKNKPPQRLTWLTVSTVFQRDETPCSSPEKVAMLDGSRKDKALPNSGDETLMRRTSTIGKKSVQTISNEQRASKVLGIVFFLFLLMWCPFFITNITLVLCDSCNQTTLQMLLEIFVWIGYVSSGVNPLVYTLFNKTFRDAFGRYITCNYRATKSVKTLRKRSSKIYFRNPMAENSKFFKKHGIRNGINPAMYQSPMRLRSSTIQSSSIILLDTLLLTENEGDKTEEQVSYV

[4] = molecular target: Cannabinoid receptor 1 (Homo sapiens, UniProt P21554); format: functional, cell-based
Chain of Cannabinoid receptor 1 (P21554 whole entry): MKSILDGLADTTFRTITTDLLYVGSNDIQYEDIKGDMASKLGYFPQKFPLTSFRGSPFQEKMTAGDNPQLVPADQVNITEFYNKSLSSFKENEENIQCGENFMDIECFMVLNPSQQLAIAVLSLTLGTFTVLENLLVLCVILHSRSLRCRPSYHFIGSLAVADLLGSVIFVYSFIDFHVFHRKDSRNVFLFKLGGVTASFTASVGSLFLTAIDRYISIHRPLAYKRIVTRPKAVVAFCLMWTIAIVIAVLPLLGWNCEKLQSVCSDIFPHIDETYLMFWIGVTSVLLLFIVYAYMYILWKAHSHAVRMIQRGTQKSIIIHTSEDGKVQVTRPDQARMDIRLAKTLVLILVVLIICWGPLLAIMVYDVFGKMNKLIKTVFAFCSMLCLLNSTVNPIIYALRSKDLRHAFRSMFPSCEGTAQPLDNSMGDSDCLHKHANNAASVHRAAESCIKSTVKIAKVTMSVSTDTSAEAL

[5] = molecular target: Adenosine receptor A2a (Homo sapiens, UniProt P29274)
Chain of Adenosine receptor A2a (P29274 whole entry): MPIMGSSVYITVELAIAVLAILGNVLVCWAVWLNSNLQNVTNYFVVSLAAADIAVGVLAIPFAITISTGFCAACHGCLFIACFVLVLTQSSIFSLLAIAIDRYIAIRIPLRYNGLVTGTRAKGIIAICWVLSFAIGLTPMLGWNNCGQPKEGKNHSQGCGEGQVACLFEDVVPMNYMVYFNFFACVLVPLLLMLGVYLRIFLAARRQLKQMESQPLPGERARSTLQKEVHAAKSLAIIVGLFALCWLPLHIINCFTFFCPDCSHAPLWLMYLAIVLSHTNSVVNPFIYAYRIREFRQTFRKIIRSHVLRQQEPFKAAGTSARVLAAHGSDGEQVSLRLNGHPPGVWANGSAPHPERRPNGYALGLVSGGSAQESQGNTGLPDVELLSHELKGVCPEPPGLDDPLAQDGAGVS

[6] = molecular target: Gamma-aminobutyric acid receptor subunit alpha-1 (Rattus norvegicus, UniProt P62813)
Chain of Gamma-aminobutyric acid receptor subunit alpha-1 (P62813 whole entry): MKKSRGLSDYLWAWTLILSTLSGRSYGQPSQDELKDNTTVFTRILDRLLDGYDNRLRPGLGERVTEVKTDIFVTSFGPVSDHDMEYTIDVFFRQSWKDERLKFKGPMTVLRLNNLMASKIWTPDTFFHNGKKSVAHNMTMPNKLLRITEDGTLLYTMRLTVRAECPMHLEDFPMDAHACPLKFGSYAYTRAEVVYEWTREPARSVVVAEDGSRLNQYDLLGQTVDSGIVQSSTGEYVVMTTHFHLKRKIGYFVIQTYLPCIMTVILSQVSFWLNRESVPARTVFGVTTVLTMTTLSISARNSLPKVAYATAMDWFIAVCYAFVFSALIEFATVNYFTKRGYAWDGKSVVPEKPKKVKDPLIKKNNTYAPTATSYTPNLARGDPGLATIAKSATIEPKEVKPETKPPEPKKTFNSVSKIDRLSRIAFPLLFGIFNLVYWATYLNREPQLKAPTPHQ

[7] = molecular target: T3, Alpha-2C adrenergic receptor (Homo sapiens, UniProt P18825); format: functional
T3 sequence (P18825 whole entry): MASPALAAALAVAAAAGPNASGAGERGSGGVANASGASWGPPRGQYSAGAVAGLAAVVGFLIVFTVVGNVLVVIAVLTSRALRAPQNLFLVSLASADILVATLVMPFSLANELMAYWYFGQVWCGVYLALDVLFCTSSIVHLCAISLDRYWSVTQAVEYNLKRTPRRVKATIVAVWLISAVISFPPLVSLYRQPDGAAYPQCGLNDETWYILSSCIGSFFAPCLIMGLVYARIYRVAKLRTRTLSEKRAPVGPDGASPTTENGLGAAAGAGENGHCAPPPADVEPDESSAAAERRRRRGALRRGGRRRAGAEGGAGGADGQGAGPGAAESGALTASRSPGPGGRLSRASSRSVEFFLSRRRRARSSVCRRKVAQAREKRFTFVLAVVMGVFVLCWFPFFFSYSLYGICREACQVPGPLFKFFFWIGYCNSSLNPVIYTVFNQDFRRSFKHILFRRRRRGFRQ

[8] = molecular target: Growth hormone secretagogue receptor type 1 (Homo sapiens, UniProt Q92847)
Chain of Growth hormone secretagogue receptor type 1 (Q92847 whole entry): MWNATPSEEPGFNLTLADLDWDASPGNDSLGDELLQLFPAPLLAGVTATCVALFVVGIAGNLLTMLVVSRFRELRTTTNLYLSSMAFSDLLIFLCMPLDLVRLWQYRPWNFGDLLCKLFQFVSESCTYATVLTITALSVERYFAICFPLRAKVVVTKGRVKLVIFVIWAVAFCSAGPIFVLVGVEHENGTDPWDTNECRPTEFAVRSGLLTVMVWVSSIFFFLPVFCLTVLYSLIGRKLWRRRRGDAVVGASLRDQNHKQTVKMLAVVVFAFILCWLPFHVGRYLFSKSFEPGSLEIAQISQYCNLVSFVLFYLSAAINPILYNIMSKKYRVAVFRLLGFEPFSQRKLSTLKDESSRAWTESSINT

[9] = molecular target: D(3) dopamine receptor (Homo sapiens, UniProt P35462)
Chain of D(3) dopamine receptor (P35462 whole entry): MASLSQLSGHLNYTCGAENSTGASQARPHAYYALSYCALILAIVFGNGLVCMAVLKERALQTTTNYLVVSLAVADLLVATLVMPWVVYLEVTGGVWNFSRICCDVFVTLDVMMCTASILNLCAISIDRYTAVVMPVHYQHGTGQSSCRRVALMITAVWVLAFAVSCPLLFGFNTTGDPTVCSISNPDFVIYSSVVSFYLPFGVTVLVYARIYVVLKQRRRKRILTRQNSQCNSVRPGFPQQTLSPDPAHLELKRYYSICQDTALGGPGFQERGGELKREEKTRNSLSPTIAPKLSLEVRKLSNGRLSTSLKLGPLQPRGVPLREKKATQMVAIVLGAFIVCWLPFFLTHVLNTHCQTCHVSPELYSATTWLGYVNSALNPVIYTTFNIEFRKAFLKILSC

[10] = molecular target: Sodium-dependent dopamine transporter (Homo sapiens, UniProt Q01959)
Chain of Sodium-dependent dopamine transporter (Q01959 whole entry): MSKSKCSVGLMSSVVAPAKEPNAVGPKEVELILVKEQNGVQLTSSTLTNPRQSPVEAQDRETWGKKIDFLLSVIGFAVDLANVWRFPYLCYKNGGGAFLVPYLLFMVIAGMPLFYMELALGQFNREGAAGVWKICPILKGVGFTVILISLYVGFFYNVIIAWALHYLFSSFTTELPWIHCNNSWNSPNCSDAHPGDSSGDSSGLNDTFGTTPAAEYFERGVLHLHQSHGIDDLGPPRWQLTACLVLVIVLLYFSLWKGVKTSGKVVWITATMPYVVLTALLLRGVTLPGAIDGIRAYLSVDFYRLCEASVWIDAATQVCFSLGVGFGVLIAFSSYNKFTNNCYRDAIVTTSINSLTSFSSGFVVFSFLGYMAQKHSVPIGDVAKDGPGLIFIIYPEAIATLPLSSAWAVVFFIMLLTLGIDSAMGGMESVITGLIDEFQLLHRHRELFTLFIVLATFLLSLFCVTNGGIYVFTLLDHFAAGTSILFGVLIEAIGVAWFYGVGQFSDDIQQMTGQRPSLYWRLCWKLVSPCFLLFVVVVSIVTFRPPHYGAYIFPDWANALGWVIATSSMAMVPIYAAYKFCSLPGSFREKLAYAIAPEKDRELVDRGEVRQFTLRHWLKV

[11] = molecular target: Motilin receptor (Homo sapiens, UniProt O43193)
Chain of Motilin receptor (O43193 whole entry): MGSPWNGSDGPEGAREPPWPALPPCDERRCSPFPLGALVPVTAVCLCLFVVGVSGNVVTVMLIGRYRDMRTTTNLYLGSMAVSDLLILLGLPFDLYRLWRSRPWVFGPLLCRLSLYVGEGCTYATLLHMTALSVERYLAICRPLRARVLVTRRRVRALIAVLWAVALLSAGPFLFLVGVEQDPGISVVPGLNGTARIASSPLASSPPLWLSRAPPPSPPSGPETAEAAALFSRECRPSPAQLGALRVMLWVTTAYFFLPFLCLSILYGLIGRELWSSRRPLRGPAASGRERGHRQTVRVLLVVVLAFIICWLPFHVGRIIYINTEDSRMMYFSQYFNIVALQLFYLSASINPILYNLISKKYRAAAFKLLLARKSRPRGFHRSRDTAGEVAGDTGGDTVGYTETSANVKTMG

[12] = molecular target: T4, 5-hydroxytryptamine receptor 2C (Homo sapiens, UniProt P28335)
T4 sequence (P28335 whole entry): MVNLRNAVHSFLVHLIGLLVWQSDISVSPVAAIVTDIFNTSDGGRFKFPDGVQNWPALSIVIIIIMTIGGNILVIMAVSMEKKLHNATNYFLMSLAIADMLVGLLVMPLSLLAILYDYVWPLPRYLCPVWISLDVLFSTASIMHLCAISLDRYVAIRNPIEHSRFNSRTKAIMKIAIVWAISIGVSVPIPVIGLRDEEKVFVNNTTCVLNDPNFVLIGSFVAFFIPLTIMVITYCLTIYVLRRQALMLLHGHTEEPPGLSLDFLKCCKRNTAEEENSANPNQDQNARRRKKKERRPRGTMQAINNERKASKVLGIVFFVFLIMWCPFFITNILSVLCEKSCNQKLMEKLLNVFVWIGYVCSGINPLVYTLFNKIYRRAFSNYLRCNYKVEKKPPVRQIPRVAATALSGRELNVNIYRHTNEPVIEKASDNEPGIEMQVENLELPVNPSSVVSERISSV

[13] = molecular target: T5, Muscarinic acetylcholine receptor M1 (Homo sapiens, UniProt P11229); format: functional
T5 sequence (P11229 whole entry): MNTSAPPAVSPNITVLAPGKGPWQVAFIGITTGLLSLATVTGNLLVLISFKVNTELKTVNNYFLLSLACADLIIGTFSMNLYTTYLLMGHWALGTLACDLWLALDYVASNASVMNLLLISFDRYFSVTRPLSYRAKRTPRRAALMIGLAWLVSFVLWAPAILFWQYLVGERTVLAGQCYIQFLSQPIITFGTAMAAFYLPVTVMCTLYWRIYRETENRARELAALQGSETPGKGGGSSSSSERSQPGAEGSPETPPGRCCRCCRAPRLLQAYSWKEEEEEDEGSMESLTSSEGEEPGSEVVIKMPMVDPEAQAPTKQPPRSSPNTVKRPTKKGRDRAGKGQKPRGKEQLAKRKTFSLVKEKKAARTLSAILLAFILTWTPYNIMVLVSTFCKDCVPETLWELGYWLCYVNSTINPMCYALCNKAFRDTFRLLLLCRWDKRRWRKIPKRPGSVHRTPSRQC
Note: assay procedure not described here.

| Compound | AC50 [1] [µM] | AC50 [2] [µM] | AC50 [3] [µM] | AC50 [4] [µM] | AC50 [5] [µM] | AC50 [6] [µM] | AC50 [7] [µM] | AC50 [8] [µM] | AC50 [9] [µM] | AC50 [10] [µM] | AC50 [11] [µM] | AC50 [12] [µM] | AC50 [13] [µM] |
| --- | --- | --- | --- | --- | --- | --- | --- | --- | --- | --- | --- | --- | --- |
| CNS(=O)(=O)Cc1ccc2[nH]cc(CCN(C)C)c2c1 | > 30 | > 30 | 13 | > 30 | > 30 | > 30 | > 30 | > 30 | > 30 | > 10 | > 10 | – | – |
| CC=CC(=O)N(CC)c1ccccc1C | > 10 | – | > 10 | > 30 | > 10 | > 10 | > 10 | > 10 | > 30 | > 10 | > 10 | > 30 | – |
| NCC[C@H](O)C(=O)N[C@@H]1C[C@H](N)[C@@H](O[C@H]2O[C@H](CN)[C@@H](O)[C@H](O)[C@H]2O)[C@H](O)[C@H]1O[C@H]1O[C@H](CO)[C@@H](O)[C@H](N)[C@H]1O [AMIKACIN] | > 10 | – | > 10 | – | > 10 | > 10 | > 10 | > 10 | > 30 | > 10 | > 10 | > 30 | – |
| CCOC(=O)OC(C)OC1=C(C(=O)Nc2ccccn2)N(C)S(=O)(=O)c2ccccc21 (stereo not drawn) [AMPIROXICAM] | > 30 | > 30 | > 30 | > 30 | > 30 | > 30 | > 30 | > 30 | > 30 | > 30 | > 30 | > 30 | – |
| C#C[C@]1(O)CC[C@H]2[C@@H]3CCC4=Cc5oncc5C[C@]4(C)[C@H]3CC[C@@]21C [DANAZOL] | – | – | > 10 | > 30 | > 30 | > 10 | > 10 | > 10 | > 30 | > 10 | > 10 | > 30 | – |
| Cn1c(=O)c2c(ncn2CC2OCCO2)n(C)c1=O [DOXOFYLLINE] | > 30 | > 30 | > 30 | > 30 | > 30 | > 30 | > 30 | > 30 | > 30 | > 30 | > 30 | > 30 | – |
| Cc1ccc(S(=O)(=O)NC(=O)NN2CC3CCCC3C2)cc1 (stereo not drawn) [GLICLAZIDE] | > 10 | – | > 10 | – | > 10 | > 10 | > 30 | > 10 | > 30 | > 10 | > 10 | > 30 | – |
| CC(C)Cn1cnc2c(N)nc3ccccc3c21 [IMIQUIMOD] | > 10 | – | 19 | – | 19.5 | > 10 | > 10 | > 10 | > 30 | > 30 | > 10 | > 30 | – |
| Nc1nc(N)nc(-c2cc(Cl)ccc2Cl)n1 [IRSOGLADINE] | > 30 | > 30 | > 30 | > 30 | > 30 | – | > 30 | > 30 | – | > 30 | > 30 | – | – |
| C[C@](N)(Cc1ccc(O)c(O)c1)C(=O)O [METHYLDOPA] | > 10 | – | > 10 | – | > 30 | > 10 | > 10 | > 10 | > 30 | > 10 | > 10 | > 30 | – |
| O=C(NCCN1CCOCC1)c1ccc(Cl)cc1 [MOCLOBEMIDE] | > 10 | – | > 10 | – | > 10 | > 10 | > 10 | > 10 | > 30 | > 10 | > 10 | > 30 | – |
| N#Cc1ccc([C@H]2CCc3cncn32)c(F)c1 [OSILODROSTAT] | – | > 10 | – | – | > 10 | > 10 | > 10 | > 10 | > 10 | > 10 | > 10 | > 10 | > 10 |
| CCCN(CCC)C(=O)C(CCC(=O)O)NC(=O)c1ccccc1 (stereo not drawn) [PROGLUMIDE] | > 10 | – | > 10 | – | > 30 | > 10 | > 30 | > 30 | > 30 | > 30 | > 30 | > 30 | – |
| C[C@]12CC[C@H]3[C@@H](CCC4=CC(=O)CC[C@@]43C)[C@@H]1CC[C@@H]2O [TESTOSTERONE] | > 10 | – | > 10 | – | > 10 | > 10 | > 10 | > 10 | > 30 | > 10 | > 10 | > 30 | – |
| CN1C(=O)OC(C)(C)C1=O [TRIMETHADIONE] | > 10 | – | > 10 | > 30 | > 10 | > 10 | > 10 | > 10 | > 30 | > 10 | > 10 | > 30 | – |
| CC(=O)O[C@H]1C[C@@H]2CC[C@@H]3[C@H](CC[C@@]4(C)[C@H]3C[C@H]([N+]3(C)CCCCC3)[C@@H]4OC(C)=O)[C@@]2(C)C[C@@H]1N1CCCCC1 [VECURONIUM] | > 30 | > 30 | > 30 | > 30 | > 30 | > 30 | > 30 | > 30 | > 30 | > 30 | > 30 | > 30 | – |
